Test system: P. aeruginosa
Assay: Flame burn injury with subcutaneous P. aeruginosa infection in mice, survival (Example 3)
Assay type: in vivo
Conditions: burned mice infected with P. aeruginosa; 1 mg then six doses of 0.5 mg subcutaneously; observed seven days; five treated animals; controls 4 of 11 survived; Fisher exact 0.0337
Procedure: Adult mice (n=16) received a ˜20% flame burn injury, followed by resuscitation with two doses of 0.5 mL of saline and […] of tramadol for analgesia. After 5 minutes, they were infected with P. aeruginosa subcutaneously under the burn wound. 20 minutes post injury, five of the animals received 1 mg of BENZ subcutaneously in 0.25 ml saline, followed by six doses of 0.5 mg of BENZ subcutaneously also in 0.25 ml saline, approximately 8-12 hours apart. The animals were observed several times daily for seven days.

O=C(O)c1ccc(S(=O)(=O)NCl)cc1 [BENZ, N-chloro-4-carboxybenzenesulfonamide]
survival of treated animals: all five survived

Reference: US20230052601A1, “HALO ACTIVE AROMATIC SULFONAMIDE PHARMACEUTICAL COMPOSITIONS FOR INTERNAL USE” (priority 2021, published 2023)
